Test results as given in patent US20260297042A1, “BIARYLAMIDE DERIVATIVES AND THEIR USE AS PKMYT1 INHIBITORS” (CANCER RESEARCH TECHNOLOGY LIMITED, priority 2023, published 2026).

Assays:
[1] = system: OVCAR 3 cells; assay: Cancer cell line proliferation assay, ATP-based cell viability (Cell Titre Glow), OVCAR 3 (CCNE1-amplified); conditions: KYSE30 (normal CCNE1) GI50 vs. OVCAR 3 (CCNE1-amplified) GI50
Summary of the method: (§1)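 Cells were treated with PKMYT1 inhibitors, then proliferation was assessed with CellTiter-Glo and luminescence read. GI50 values were fitted from the resulting data.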

[2] = molecular target: T1, Cellular PKMYT1 Biomarker CDK1 pT14 (Homo sapiens, UniProt Q99640); assay: Inhibition of cellular PKMYT1 biomarker CDK1 pT14 in OVCAR 3 cells (immunoblot); format: cell-based; conditions: 20 hours incubation
T1 construct: read-out CDK1 phospho-T14 immunoblot
T1 sequence (Q99640 1-499): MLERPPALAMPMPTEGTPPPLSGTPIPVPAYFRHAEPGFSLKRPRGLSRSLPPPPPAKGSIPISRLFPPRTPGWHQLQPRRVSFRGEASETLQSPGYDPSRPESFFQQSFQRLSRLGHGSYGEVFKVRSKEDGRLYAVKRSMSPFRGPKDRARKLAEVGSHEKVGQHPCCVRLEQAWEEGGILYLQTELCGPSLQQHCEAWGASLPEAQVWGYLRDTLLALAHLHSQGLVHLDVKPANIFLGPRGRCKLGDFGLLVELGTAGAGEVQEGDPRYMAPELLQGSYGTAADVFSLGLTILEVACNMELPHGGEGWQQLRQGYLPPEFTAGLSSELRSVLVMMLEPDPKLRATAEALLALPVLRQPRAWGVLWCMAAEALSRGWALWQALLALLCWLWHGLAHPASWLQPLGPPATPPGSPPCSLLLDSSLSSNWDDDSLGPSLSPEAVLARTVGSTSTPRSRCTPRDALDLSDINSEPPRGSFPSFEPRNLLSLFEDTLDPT
Summary of the method: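 Confluent OVCAR 3 cells treated with a compound concentration range for 20 h at 37 °C. Lysates analysed by automated capillary immunoblot for CDK1 phospho-T14, with vinculin, fluorescence detection; IC50 by regression.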

[3] = system: KYSE-30 cells; assay: Cancer cell line proliferation assay, ATP-based cell viability (Cell Titre Glow), KYSE-30 (normal CCNE1); conditions: Homo sapiens, KYSE-30 cells (normal CCNE1), concentration that achieves 50% cell growth proliferation inhibition, read-out: KYSE30 Gl50
Summary of the method: as §1

[4] = molecular target: T2, Human PKMYT1 (Homo sapiens, UniProt Q99640); assay: PKMYT1 biochemical ADP-Glo enzymatic assay; conditions: ADP-Glo; 15 nM PKMYT1 kinase domain, 500 µM ATP, 60 minutes at 26° C.; banded
T2 construct: Human PKMYT1 75-362 was cloned as a TEV cleavable 6xHis fusion; 6xHis (TEV cleavable) (cleaved yes); made in house; host or cells: bacterial cells
T2 sequence (Q99640 75-362): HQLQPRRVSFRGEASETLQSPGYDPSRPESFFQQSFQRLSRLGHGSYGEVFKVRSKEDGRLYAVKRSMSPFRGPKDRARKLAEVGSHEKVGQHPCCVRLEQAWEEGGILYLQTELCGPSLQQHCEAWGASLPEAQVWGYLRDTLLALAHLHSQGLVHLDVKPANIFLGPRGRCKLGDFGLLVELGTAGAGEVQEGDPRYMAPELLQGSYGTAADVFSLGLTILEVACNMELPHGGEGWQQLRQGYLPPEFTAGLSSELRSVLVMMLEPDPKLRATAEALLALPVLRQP
Summary of the method: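 IC50 derived from luminescence (ADP-Glo Max) after PKMYT1 kinase domain, 15 nM, turned over 500 µM ATP for 60 min at 26 °C. Buffer contained 10 mM MgCl2, 1 mM EGTA and 0.01% Brij-35 at pH 7.5.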

[5] = molecular target: T3, WEE1 (Homo sapiens, UniProt P30291); assay: Selectivity versus WEE1 assay (ADP-Glo enzymatic assay); format: biochemical; conditions: banded; for IC50: ADP-Glo, 15 nM WEE1, 60 minutes at 26° C.; for PKMYT1 vs. WEE1 selectivity: fold difference in selectivity for PKMYT1 over WEE1, ">N" = at least in this band but could be higher
T3 construct: purchased Thermo Fisher PR7373A
Summary of the method: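 Inhibition is measured as reduced ADP production, detected by luminescence with ADP-Glo, after enzyme (15 nM) and 30 µM ATP react for 60 min at 26° C in 1% DMSO-containing HEPES buffer, pH 7.5. Data are accepted only if replicate IC50s fall within 3-fold and r2 exceeds 0.9.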

T3 sequence (P30291 whole entry): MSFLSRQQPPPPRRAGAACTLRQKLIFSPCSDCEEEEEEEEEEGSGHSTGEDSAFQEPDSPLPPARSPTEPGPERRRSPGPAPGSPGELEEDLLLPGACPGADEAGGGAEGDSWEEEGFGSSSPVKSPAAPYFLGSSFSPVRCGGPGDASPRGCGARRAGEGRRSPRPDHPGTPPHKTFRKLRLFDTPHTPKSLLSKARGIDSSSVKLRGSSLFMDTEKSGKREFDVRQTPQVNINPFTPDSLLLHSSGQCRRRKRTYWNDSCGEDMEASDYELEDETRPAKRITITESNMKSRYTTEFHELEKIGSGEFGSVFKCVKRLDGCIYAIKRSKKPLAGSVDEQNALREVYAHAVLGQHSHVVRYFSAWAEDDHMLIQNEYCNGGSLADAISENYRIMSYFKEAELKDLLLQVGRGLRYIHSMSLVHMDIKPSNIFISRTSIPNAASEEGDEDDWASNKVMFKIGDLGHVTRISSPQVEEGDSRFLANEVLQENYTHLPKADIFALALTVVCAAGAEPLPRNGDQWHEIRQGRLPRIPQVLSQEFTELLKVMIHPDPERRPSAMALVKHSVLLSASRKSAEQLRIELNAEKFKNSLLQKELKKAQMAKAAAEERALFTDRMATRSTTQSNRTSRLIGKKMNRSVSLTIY

Structure (SMILES) | IC50 [2] [µM] | IC50 [4] [µM] | IC50 [5] [µM] | PKMYT1 vs. WEE1 selectivity [5] | Selectivity ratio KYSE30 Gl50 vs. OVCAR3 Gl50 [1] | GI50 [3] [µM]
Cc1ccc(O)c(C)c1NC(=O)c1cnc(Nc2cccc(N3CCC(NC(=O)OC(C)(C)C)CC3)n2)s1 [BAA-327, tert-butyl(1-(6-((5-((3-hydroxy-2,6-dimethylphenyl)carbamoyl)thiazol-2-yl)amino)pyridin-2-yl)piperidin-4-yl)carbamate] | 0.1 to 1 | 0.05 to 1 | > 11 | X (100-<1000 fold) | Y (>20 fold) | 0.5 to 5
Cc1ccc(NC(=O)c2ccc(C(F)(F)F)cc2)nc1Nc1ncc(C(=O)Nc2c(C)ccc(O)c2C)s1 [BAA-328, N-(3-Hydroxy-2,6-dimethylphenyl)-2-((3-methyl-6-(4-(trifluoromethyl)benzamido)pyridin-2-yl)amino)thiazole-5-carboxamide] | < 0.1 | 0.05 to 1 | > 11 | X (100-<1000 fold) | Y (>20 fold) | > 5
Cc1ccc(O)c(C)c1NC(=O)c1cnc(Nc2nc(NC(=O)C(C)(C)C)ccc2Cl)s1.Cl [BAA-333, 2-((3-chloro-6-pivalamidopyridin-2-yl)amino)-N-(3-hydroxy-2,6-dimethylphenyl)thiazole-5-carboxamide hydrochloride] | < 0.1 | 0.05 to 1 | > 11 | Y (1000-5000 fold) | Y (>20 fold) | > 5
Cc1ccc(O)c(C)c1NC(=O)c1cnc(Nc2cc(Cl)cc(NC(=O)C(C)(C)C)n2)s1.Cl [BAA-334, 2-((4-chloro-6-pivalamidopyridin-2-yl)amino)-N-(3-hydroxy-2,6-dimethylphenyl)thiazole-5-carboxamide hydrochloride] | < 0.1 | 0.05 to 1 | > 11 | X (100-<1000 fold) | Y (>20 fold) | 0.5 to 5
Cc1cc(Nc2ncc(C(=O)Nc3c(C)ccc(O)c3C)s2)nc(NCCC(C)(C)C)n1 [BAA-338, 2-((2-((3,3-Dimethylbutyl)amino)-6-methylpyrimidin-4-yl)amino)-N-(3-hydroxy-2,6-dimethylphenyl)thiazole-5-carboxamide] | < 0.1 | < 0.05 | 1 to 11 | X (100-<1000 fold) | Y (>20 fold) | < 0.5
Cc1cn(S(=O)(=O)c2ccccc2)nc1Nc1ncc(C(=O)Nc2c(C)ccc(O)c2C)s1 [BAA-379, N-(3-Hydroxy-2,6-dimethylphenyl)-2-((4-methyl-1-(phenylsulfonyl)-1H-pyrazol-3-yl)amino)thiazole-5-carboxamide] | < 0.1 | < 0.05 | > 11 | X (100-<1000 fold) | X (3-20 fold) | > 5
Cc1cn(CC(=O)N2CC3(CCC3)C2)nc1Nc1ncc(C(=O)Nc2c(C)ccc(O)c2C)s1 [BAA-381, N-(3-hydroxy-2,6-dimethylphenyl)-2-((4-methyl-1-(2-oxo-2-(2-azaspiro[3.3]heptan-2-yl)ethyl)-1H-pyrazol-3-yl)amino)thiazole-5-carboxamide] | < 0.1 | < 0.05 | 1 to 11 | X (100-<1000 fold) | Y (>20 fold) | > 5
Cc1cnccc1-n1cc(C)c(Nc2ncc(C(=O)Nc3c(C)ccc(O)c3C)s2)n1 [BAA-384, N-(3-hydroxy-2,6-dimethylphenyl)-2-((4-methyl-1-(3-methylpyridin-4-yl)-1H-pyrazol-3-yl)amino)thiazole-5-carboxamide] | < 0.1 | < 0.05 | 1 to 11 | X (100-<1000 fold) | Y (>20 fold) | 0.5 to 5

Second part, led by results:

IC50 [2] [µM] | IC50 [4] [µM] | IC50 [5] [µM] | PKMYT1 vs. WEE1 selectivity [5] | Structure (SMILES) | Selectivity ratio KYSE30 Gl50 vs. OVCAR3 Gl50 [1] | GI50 [3] [µM]
< 0.1 | < 0.05 | > 11 | Y (1000-5000 fold) | Cc1ccc(NC(=O)C2CCOCC2)nc1Nc1ncc(C(=O)Nc2c(C)ccc(O)c2C)s1.Cl [BAA-331, N-(3-hydroxy-2,6-dimethylphenyl)-2-((3-methyl-6-(tetrahydro-2H-pyran-4-carboxamido)pyridin-2-yl)amino)thiazole-5-carboxamide hydrochloride] | Y (>20 fold) | 0.5 to 5
< 0.1 | < 0.05 | > 11 | X (100-<1000 fold) | Cc1ccc(NC(=O)C(C)C)nc1Nc1ncc(C(=O)Nc2c(C)ccc(O)c2C)s1.Cl [BAA-332, N-(3-hydroxy-2,6-dimethylphenyl)-2-((6-isobutyramido-3-methylpyridin-2-yl)amino)thiazole-5-carboxamide hydrochloride] | Y (>20 fold) | 0.5 to 5
< 0.1 | < 0.05 | 1 to 11 | X (100-<1000 fold) | Cc1ccc(N)nc1Nc1ncc(C(=O)Nc2c(C)ccc(O)c2C)s1 [BAA-337, 2-((6-amino-3-methylpyridin-2-yl)amino)-N-(3-hydroxy-2,6-dimethylphenyl)thiazole-5-carboxamide] | Y (>20 fold) | 0.5 to 5
0.1 to 1 | < 0.05 | 0.05 to 1 | V (3-<10 fold) | Cc1ccc(N[S+]([O-])C(C)(C)C)nc1Nc1ncc(C(=O)Nc2c(C)ccc(O)c2C)s1 (stereo not drawn) [BAA-340, 2-((6-((tert-Butylsulfinyl)amino)-3-methylpyridin-2-yl)amino)-N-(3-hydroxy-2,6-dimethylphenyl)thiazole-5-carboxamide] | Y (>20 fold) | 0.5 to 5
< 0.1 | < 0.05 | > 11 | X (100-<1000 fold) | Cc1ccc(NC(=O)C(C)(C)O)nc1Nc1ncc(C(=O)Nc2c(C)ccc(O)c2C)s1.Cl [BAA-342, N-(3-Hydroxy-2,6-dimethylphenyl)-2-((6-(2-hydroxy-2-methylpropanamido)-3-methylpyridin-2-yl)amino)thiazole-5-carboxamide hydrochloride] | Y (>20 fold) | > 5
< 0.1 | < 0.05 | > 11 | X (100-<1000 fold) | Cc1cn(-c2ccccc2)nc1Nc1ncc(C(=O)Nc2c(C)ccc(O)c2C)s1 [BAA-361, N-(3-hydroxy-2,6-dimethylphenyl)-2-((4-methyl-1-phenyl-1H-pyrazol-3-yl)amino)thiazole-5-carboxamide] | Y (>20 fold) | 0.5 to 5
< 0.1 | < 0.05 | > 11 | X (100-<1000 fold) | Cc1cn(-c2ccccn2)nc1Nc1ncc(C(=O)Nc2c(C)ccc(O)c2C)s1 [BAA-365, N-(3-hydroxy-2,6-dimethylphenyl)-2-((4-methyl-1-(pyridin-2-yl)-1H-pyrazol-3-yl)amino)thiazole-5-carboxamide] | Y (>20 fold) | 0.5 to 5
